Reference: US20140120232A1, “ACID TASTE/ACID SMELL-REDUCING AGENT” (T. HASEGAWA CO., LTD., priority 2011, published 2014)

Assay: Sensory evaluation of Vermont drink containing the agent
Details: ten panels
Method in brief: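 Tridecadienal or tridecatrienal isomers added at various concentrations to a Vermont-flavoured drink (apple-cider vinegar, honey, liquid sugar, citric acid, trisodium citrate, 100 mL total). Ten panelists assessed acid taste/acid smell and aldehyde-type off-odour, and the concentration giving the best acid taste/smell quality was selected.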

Compound: CCCCC/C=C/C/C=C\CCC=O [(Z,E)-4,7-tridecadienal]
- A: number of panels, acid taste/acid smell extreme and cause irritation (0.005 ppt): 10
- B: number of panels, acid taste/acid smell slightly strong and slightly cause irritation (0.005 ppt): 0
- C: number of panels, acid taste/acid smell slightly unpleasant (0.005 ppt): 0
- Flavor judgment: number of panels who judged acid taste/acid smell quality the highest (0.005 ppt): 0
- N: number of panels, irritation of acid reduced to give a mild acid taste (0.005 ppt): 0
- X: number of panels, acid taste reduced but piercing odor characteristic to aldehydes unpleasant (0.005 ppt): 0
- A: number of panels, acid taste/acid smell extreme and cause irritation (0.02 ppt): 10
- B: number of panels, acid taste/acid smell slightly strong and slightly cause irritation (0.02 ppt): 0
- C: number of panels, acid taste/acid smell slightly unpleasant (0.02 ppt): 0
- Flavor judgment: number of panels who judged acid taste/acid smell quality the highest (0.02 ppt): 0
- N: number of panels, irritation of acid reduced to give a mild acid taste (0.02 ppt): 0
- X: number of panels, acid taste reduced but piercing odor characteristic to aldehydes unpleasant (0.02 ppt): 0
- A: number of panels, acid taste/acid smell extreme and cause irritation (0.1 ppt): 10
- B: number of panels, acid taste/acid smell slightly strong and slightly cause irritation (0.1 ppt): 0
- C: number of panels, acid taste/acid smell slightly unpleasant (0.1 ppt): 0
- Flavor judgment: number of panels who judged acid taste/acid smell quality the highest (0.1 ppt): 0
- N: number of panels, irritation of acid reduced to give a mild acid taste (0.1 ppt): 0
- X: number of panels, acid taste reduced but piercing odor characteristic to aldehydes unpleasant (0.1 ppt): 0
- A: number of panels, acid taste/acid smell extreme and cause irritation (0.2 ppt): 9
- B: number of panels, acid taste/acid smell slightly strong and slightly cause irritation (0.2 ppt): 1
- C: number of panels, acid taste/acid smell slightly unpleasant (0.2 ppt): 0
- Flavor judgment: number of panels who judged acid taste/acid smell quality the highest (0.2 ppt): 0
- N: number of panels, irritation of acid reduced to give a mild acid taste (0.2 ppt): 0
- X: number of panels, acid taste reduced but piercing odor characteristic to aldehydes unpleasant (0.2 ppt): 0
- A: number of panels, acid taste/acid smell extreme and cause irritation (0.5 ppt): 5
- B: number of panels, acid taste/acid smell slightly strong and slightly cause irritation (0.5 ppt): 3
- C: number of panels, acid taste/acid smell slightly unpleasant (0.5 ppt): 2
- Flavor judgment: number of panels who judged acid taste/acid smell quality the highest (0.5 ppt): 0
- N: number of panels, irritation of acid reduced to give a mild acid taste (0.5 ppt): 0
- X: number of panels, acid taste reduced but piercing odor characteristic to aldehydes unpleasant (0.5 ppt): 0
- A: number of panels, acid taste/acid smell extreme and cause irritation (1 ppb): 0
- B: number of panels, acid taste/acid smell slightly strong and slightly cause irritation (1 ppb): 0
- C: number of panels, acid taste/acid smell slightly unpleasant (1 ppb): 2
- Flavor judgment: number of panels who judged acid taste/acid smell quality the highest (1 ppb): 0
- N: number of panels, irritation of acid reduced to give a mild acid taste (1 ppb): 4
- X: number of panels, acid taste reduced but piercing odor characteristic to aldehydes unpleasant (1 ppb): 4
- A: number of panels, acid taste/acid smell extreme and cause irritation (1 ppt): 0
- B: number of panels, acid taste/acid smell slightly strong and slightly cause irritation (1 ppt): 3
- C: number of panels, acid taste/acid smell slightly unpleasant (1 ppt): 6
- Flavor judgment: number of panels who judged acid taste/acid smell quality the highest (1 ppt): 0
- N: number of panels, irritation of acid reduced to give a mild acid taste (1 ppt): 1
- X: number of panels, acid taste reduced but piercing odor characteristic to aldehydes unpleasant (1 ppt): 0
- A: number of panels, acid taste/acid smell extreme and cause irritation (5 ppt): 0
- B: number of panels, acid taste/acid smell slightly strong and slightly cause irritation (5 ppt): 2
- C: number of panels, acid taste/acid smell slightly unpleasant (5 ppt): 2
- Flavor judgment: number of panels who judged acid taste/acid smell quality the highest (5 ppt): 4
- N: number of panels, irritation of acid reduced to give a mild acid taste (5 ppt): 6
- X: number of panels, acid taste reduced but piercing odor characteristic to aldehydes unpleasant (5 ppt): 0
- A: number of panels, acid taste/acid smell extreme and cause irritation (10 ppb): 0
- B: number of panels, acid taste/acid smell slightly strong and slightly cause irritation (10 ppb): 0
- C: number of panels, acid taste/acid smell slightly unpleasant (10 ppb): 2
- Flavor judgment: number of panels who judged acid taste/acid smell quality the highest (10 ppb): 0
- N: number of panels, irritation of acid reduced to give a mild acid taste (10 ppb): 3
- X: number of panels, acid taste reduced but piercing odor characteristic to aldehydes unpleasant (10 ppb): 5
- A: number of panels, acid taste/acid smell extreme and cause irritation (20 ppt): 0
- B: number of panels, acid taste/acid smell slightly strong and slightly cause irritation (20 ppt): 1
- C: number of panels, acid taste/acid smell slightly unpleasant (20 ppt): 2
- Flavor judgment: number of panels who judged acid taste/acid smell quality the highest (20 ppt): 3
- N: number of panels, irritation of acid reduced to give a mild acid taste (20 ppt): 7
- X: number of panels, acid taste reduced but piercing odor characteristic to aldehydes unpleasant (20 ppt): 0
- A: number of panels, acid taste/acid smell extreme and cause irritation (50 ppb): 0
- B: number of panels, acid taste/acid smell slightly strong and slightly cause irritation (50 ppb): 0
- C: number of panels, acid taste/acid smell slightly unpleasant (50 ppb): 0
- Flavor judgment: number of panels who judged acid taste/acid smell quality the highest (50 ppb): 0
- N: number of panels, irritation of acid reduced to give a mild acid taste (50 ppb): 2
- X: number of panels, acid taste reduced but piercing odor characteristic to aldehydes unpleasant (50 ppb): 8
- A: number of panels, acid taste/acid smell extreme and cause irritation (100 ppt): 0
- B: number of panels, acid taste/acid smell slightly strong and slightly cause irritation (100 ppt): 0
- C: number of panels, acid taste/acid smell slightly unpleasant (100 ppt): 2
- Flavor judgment: number of panels who judged acid taste/acid smell quality the highest (100 ppt): 3
- N: number of panels, irritation of acid reduced to give a mild acid taste (100 ppt): 8
- X: number of panels, acid taste reduced but piercing odor characteristic to aldehydes unpleasant (100 ppt): 0
- A: number of panels, acid taste/acid smell extreme and cause irritation (500 ppt): 0
- B: number of panels, acid taste/acid smell slightly strong and slightly cause irritation (500 ppt): 1
- C: number of panels, acid taste/acid smell slightly unpleasant (500 ppt): 3
- Flavor judgment: number of panels who judged acid taste/acid smell quality the highest (500 ppt): 0
- N: number of panels, irritation of acid reduced to give a mild acid taste (500 ppt): 4
- X: number of panels, acid taste reduced but piercing odor characteristic to aldehydes unpleasant (500 ppt): 2
